Results on 24 compounds are retold here after patent US11718626B2, “Macrocyclic compounds for treatment of medical disorders” (Achillion Pharmaceuticals, Inc., priority 2017, dated 2023).

Values joined by “and” are separate entries in the source; they are usually repeats but may differ in a detail not shown here. Equal values may be shown once. Read-outs that look alike come from different tables or passages of the source.

The conditions of series [1]: rcm bond, Grubbs II, toluene, 80.0 °C.
For series [2] the following is noted: rcm bond, toluene, 80.0 °C.

With `CC(=O)c1nn2c3c(cc(-c4cnc(C)nc4)cc13)CCCCCCC=Cc1cn(nn1)C[C@@]13C[C@@H](C(=O)Nc4nc(Br)ccc4C)N(C(=O)C2)[C@@H]1C3`, the ring closure, yield after HPLC in series [1] (from C=CCCCCCCc1cc(-c2cnc(C)nc2)cc2c(C(C)=O)nn(CC(=O)N3[C@H](C(=O)Nc4nc(Br)ccc4C)C[C@@]4(Cn5cc(C=C)nn5)C[C@@H]34)c12, 20-membered ring, 2.6 mM, 16.0 h) is 3.97%; in series [1] (from C=CCCCCCCc1cc(-c2cnc(C)nc2)cc2c(C(C)=O)nn(CC(=O)N3[C@H](C(=O)Nc4nc(Br)ccc4C)C[C@@]4(Cn5cc(C=C)nn5)C[C@@H]34)c12, 2.6 mM, 16.0 h), 6.93%. This compound also displayed a ring closure, isolated yield in series [2] (from C=CCCCCCCc1cc(-c2cnc(C)nc2)cc2c(C(C)=O)nn(CC(=O)N3[C@H](C(=O)Nc4nc(Br)ccc4C)C[C@@]4(Cn5cc(C=C)nn5)C[C@@H]34)c12, 20-membered ring, Grubbs II, 2.6 mM, 16.0 h) of 59.4%.

The compound “(41R,43S,45S,E)-13-Acetyl-N-(6-bromo-3-methylpyridin-2-yl)-3,14-dioxo-11H-6,15-dioxa-42,13-diaza-1(1,6)-indazola-4(2,5)-bicyclo[3.1.0]hexanacyclopentadecaphan-8-ene-43-carboxamide” returned a ring closure, isolated yield in series [2] (20-membered ring, Grubbs II, 1.48 mM) of 4.1%.

Consider “tert-Butyl (41R,43S,45R,E)-16-Bromo-8,8-difluoro-3,7-dioxo-13-oxa-42,2,6-triaza-1(2,3)-pyridina-4(3,5)-bicyclo[3.1.0]hexanacyclotetradecaphan-10-ene-42-carboxylate”, for which the ring closure, isolated yield in series [2] (17-membered ring, Grubbs II, 2.0 mM) amounted to 96.5%.

In turn, `CC(=O)c1nn2c3c(cc(-c4cnc(C)nc4)cc13)CCCCC=CCc1cccc(n1)OC[C@@]13C[C@@H](C(=O)Nc4nc(Br)ccc4C)N(C(=O)C2)[C@@H]1C3` came in with a ring closure, yield after HPLC in series [1] (from C=CCCCCc1cc(-c2cnc(C)nc2)cc2c(C(C)=O)nn(CC(=O)N3[C@H](C(=O)Nc4nc(Br)ccc4C)C[C@@]4(COc5cccc(CC=C)n5)C[C@@H]34)c12, 1.6 mM, 16.0 h) of 78.1%.

Compound `CC(C)(C)OC(=O)N1[C@H]2C[C@@]3(CNC(=O)C(C)(C)CC=CCOCc4ccc(Br)nc4NC2=O)C[C@@H]13` had a ring closure, isolated yield in series [2] (from C=CCOCc1ccc(Br)nc1NC(=O)[C@@H]1C[C@@]2(CNC(=O)C(C)(C)CC=C)C[C@H]2N1C(=O)OC(C)(C)C, 17-membered ring, Grubbs II, 3.14 mM, 16.0 h) of 83.1%.

`CC(=O)c1nn2c3c(cc(-c4cnc(C)nc4)cc13)CCCCCCC=CCOC[C@@]13C[C@@H](C(=O)Nc4nc(Br)ccc4C)N(C(=O)C2)[C@@H]1C3`: the ring closure, isolated yield in series [2] (from C=CCCCCCCc1cc(-c2cnc(C)nc2)cc2c(C(C)=O)nn(CC(=O)N3[C@H](C(=O)Nc4nc(Br)ccc4C)C[C@@]4(COCC=C)C[C@@H]34)c12, 19-membered ring, Grubbs II, 3.0 mM, 4.0 h) stood at 88.7%.

Turning to `CC(=O)c1nn2c3cc(c(-c4cnc(C)nc4)cc13)OCCCCC=CCOC[C@@]13C[C@@H](C(=O)Nc4nc(Br)ccc4C)N(C(=O)C2)[C@@H]1C3`, the ring closure, yield after HPLC in series [1] (from C=CCCCCOc1cc2c(cc1-c1cnc(C)nc1)c(C(C)=O)nn2CC(=O)N1[C@H](C(=O)Nc2nc(Br)ccc2C)C[C@@]2(COCC=C)C[C@@H]12, 18-membered ring, 1.32 mM, 16.0 h) was 10.6% and 7.07%.

Compound `CC(=O)c1nn2c3cc(ccc13)C(=O)NCCCCC=CCOC[C@@]13C[C@@H](C(=O)Nc4nc(Br)ccc4C)N(C(=O)C2)[C@@H]1C3` yielded a ring closure, isolated yield in series [2] (from C=CCCCCNC(=O)c1ccc2c(C(C)=O)nn(CC(=O)N3[C@H](C(=O)Nc4nc(Br)ccc4C)C[C@@]4(COCC=C)C[C@@H]34)c2c1, 20-membered ring, Grubbs II, 1.44 mM, 16.0 h) of 45.6%.

On to `CC(C)(C)OC(=O)N1[C@H]2C[C@@]3(Cc4nc(no4)C=CCOCc4ccc(Br)nc4NC2=O)C[C@@H]13`, for which, in series [2] (from C=CCOCc1ccc(Br)nc1NC(=O)[C@@H]1C[C@@]2(Cc3nc(C=C)no3)C[C@H]2N1C(=O)OC(C)(C)C, 16-membered ring, Zhan-1B, 1.75 mM, 16.0 h), the ring closure, isolated yield is 56.2%.

The compound `Cc1ncc(-c2cc3c(C#N)nn4c3c(n2)CC=CCCCC(=O)NC[C@@]23C[C@@H](C(=O)Nc5nc(Br)ccc5C)N(C(=O)C4)[C@@H]2C3)cn1` yielded a ring closure, isolated yield in series [2] (from C=CCCCC(=O)NC[C@@]12C[C@@H](C(=O)Nc3nc(Br)ccc3C)N(C(=O)Cn3nc(C#N)c4cc(-c5cnc(C)nc5)nc(CC=C)c43)[C@@H]1C2, 17-membered ring, Grubbs II, 1.27 mM, 16.0 h) of 44.8%.

Consider “tert-Butyl (42S,44R,E)-16-Bromo-44-fluoro-3-oxo-6-oxa-2-aza-1(2,3)-pyridina-4(2,4)-pyrrolidinacyclotridecaphan-12-ene-41-carboxylate”, for which the ring closure, isolated yield in series [2] (16-membered ring, Grubbs II, 1.83 mM) turned out to be 59.3%.

With `CC(=O)c1nn2c3c(cc(-c4cnc(C)nc4)cc13)CCC=CCCCC(=O)NC[C@@]13C[C@@H](C(=O)Nc4nc(Br)ccc4C)N(C(=O)C2)[C@@H]1C3`, the ring closure, yield after HPLC worked out at 15.8% in series [1] (from C=CCCCC(=O)NC[C@@]12C[C@@H](C(=O)Nc3nc(Br)ccc3C)N(C(=O)Cn3nc(C(C)=O)c4cc(-c5cnc(C)nc5)cc(CCC=C)c43)[C@@H]1C2, 17-membered ring, 7.0 mM, 2.5 h) and 11.6% in series [1] (from C=CCCCC(=O)NC[C@@]12C[C@@H](C(=O)Nc3nc(Br)ccc3C)N(C(=O)Cn3nc(C(C)=O)c4cc(-c5cnc(C)nc5)cc(CCC=C)c43)[C@@H]1C2, 18-membered ring, 7.0 mM, 2.5 h).

As for `CC(=O)c1nn2c3c(nc(-c4cnc(C)nc4)cc13)CC=CCCCC(=O)NC[C@@]13C[C@@H](C(=O)Nc4nc(C(F)(F)F)ccc4C)N(C(=O)C2)[C@@H]1C3`, the ring closure, yield after HPLC in series [1] (from C=CCCCC(=O)NC[C@@]12C[C@@H](C(=O)Nc3nc(C(F)(F)F)ccc3C)N(C(=O)Cn3nc(C(C)=O)c4cc(-c5cnc(C)nc5)nc(CC=C)c43)[C@@H]1C2, 17-membered ring, 1.4 mM) is 26.9%.

Compound `CN1CCCCCC=C[C@@]23C[C@@H](C(=O)Nc4nc(Br)ccc4C1)N(C(=O)OC(C)(C)C)[C@@H]2C3` displayed a ring closure, isolated yield in series [2] (from C=CCCCCCN(C)Cc1ccc(Br)nc1NC(=O)[C@@H]1C[C@@]2(C=C)C[C@H]2N1C(=O)OC(C)(C)C, 16-membered ring, Grubbs II, 1.78 mM, 16.0 h) of 72.4%.

The compound `CN1CCCCC=CCc2ccc(Br)nc2NC(=O)[C@@H]2C[C@]3(C[C@H]3N2C(=O)OC(C)(C)C)C1` had a ring closure, isolated yield in series [2] (from C=CCCCCN(C)C[C@@]12C[C@@H](C(=O)Nc3nc(Br)ccc3CC=C)N(C(=O)OC(C)(C)C)[C@@H]1C2, 16-membered ring, Grubbs II, 1.83 mM) of 93.5%.

In series [2] (from C=CCOCc1ccc(Br)nc1NC(=O)[C@@H]1C[C@@]2(CNC(=O)C(F)(F)CC=C)C[C@H]2N1C(=O)OC(C)(C)C, 17-membered ring, Grubbs II, 2.0 mM), `CC(C)(C)OC(=O)N1[C@H]2C[C@@]3(CNC(=O)C(F)(F)CC=CCOCc4ccc(Br)nc4NC2=O)C[C@@H]13` returned a ring closure, isolated yield of 96.5%.

With `CC(=O)c1nn2c3c(cc(-c4cnc(C)nc4)cc13)CC=CCCCC(=O)N(C)C[C@@]13C[C@@H](C(=O)Nc4ccc(C)c(C(F)(F)F)n4)N(C(=O)C2)[C@@H]1C3`, in series [2] (from C=CCCCC(=O)N(C)C[C@@]12C[C@@H](C(=O)Nc3ccc(C)c(C(F)(F)F)n3)N(C(=O)Cn3nc(C(C)=O)c4cc(-c5cnc(C)nc5)cc(CC=C)c43)[C@@H]1C2, 17-membered ring, Grubbs II, 1.24 mM), the ring closure, isolated yield was 70.6%.

`CC(=O)c1nn2c3c(cc(-c4cnc(C)nc4)cc13)CCCCC=CCc1cccc(c1)COC[C@@]13C[C@@H](C(=O)Nc4nc(Br)ccc4C)N(C(=O)C2)[C@@H]1C3` returned a ring closure, isolated yield in series [2] (from C=CCCCCc1cc(-c2cnc(C)nc2)cc2c(C(C)=O)nn(CC(=O)N3[C@H](C(=O)Nc4nc(Br)ccc4C)C[C@@]4(COCc5cccc(CC=C)c5)C[C@@H]34)c12, 21-membered ring, Grubbs II, 1.83 mM, 16.0 h) of 40.9%.

For `CC(=O)c1nn2c3c(cc(-c4cnc(C)nc4)cc13)CCCCC=CCC=C[C@@]13C[C@@H](C(=O)Nc4nc(Br)ccc4C)N(C(=O)C2)[C@@H]1C3`, the ring closure, isolated yield in series [2] (from C=CCC=C[C@@]12C[C@@H](C(=O)Nc3nc(Br)ccc3C)N(C(=O)Cn3nc(C(C)=O)c4cc(-c5cnc(C)nc5)cc(CCCCC=C)c43)[C@@H]1C2, 17-membered ring, Grubbs II, 2.27 mM, 16.0 h) was 21.8%.

`CC(=O)c1nn2c3cc(ccc13)NC(=O)OCCCCC=CCOC[C@@]13C[C@@H](C(=O)Nc4nc(Br)ccc4C)N(C(=O)C2)[C@@H]1C3` came in with a ring closure, isolated yield in series [2] (from C=CCCCCOC(=O)Nc1ccc2c(C(C)=O)nn(CC(=O)N3[C@H](C(=O)Nc4nc(Br)ccc4C)C[C@@]4(COCC=C)C[C@@H]34)c2c1, 21-membered ring, Grubbs II, 1.7 mM, 16.0 h) of 51.2%.

As to `CC(=O)c1nn2c3cc(ccc13)NC(=O)OCCCC=CCOC[C@@]13C[C@@H](C(=O)Nc4nc(Br)ccc4C)N(C(=O)C2)[C@@H]1C3`, in series [1] (from C=CCCCOC(=O)Nc1ccc2c(C(C)=O)nn(CC(=O)N3[C@H](C(=O)Nc4nc(Br)ccc4C)C[C@@]4(COCC=C)C[C@@H]34)c2c1, 20-membered ring, 2.0 mM, 2.0 h), the ring closure, yield after HPLC amounted to 68.5%.

Compound `CC(=O)c1nn2c3c(cc(-c4cnc(C)nc4)cc13)C=CCCCCCN(C)C[C@@]13C[C@@H](C(=O)Nc4nc(Br)ccc4C)N(C(=O)C2)[C@@H]1C3` registered a ring closure, isolated yield in series [2] (from C=CCCCCCN(C)C[C@@]12C[C@@H](C(=O)Nc3nc(Br)ccc3C)N(C(=O)Cn3nc(C(C)=O)c4cc(-c5cnc(C)nc5)cc(C=C)c43)[C@@H]1C2, 17-membered ring, Zhan-1B, 4.38 mM) of 47.4%.

Compound `CC(C)(C)OC(=O)N1[C@H]2C[C@@]3(CCCC=CCOCc4ccc(Br)nc4NC2=O)C[C@@H]13` had a ring closure, isolated yield in series [2] (from C=CCCC[C@@]12C[C@@H](C(=O)Nc3nc(Br)ccc3COCC=C)N(C(=O)OC(C)(C)C)[C@@H]1C2, 15-membered ring, Grubbs II, 1.87 mM) of 70.4%.

In the case of `CC(=O)c1nn2c3cc(ccc13)NC(=O)NCCCC=CCOC[C@@]13C[C@@H](C(=O)Nc4nc(Br)ccc4C)N(C(=O)C2)[C@@H]1C3`, the ring closure, yield after HPLC in series [1] (from C=CCCCNC(=O)Nc1ccc2c(C(C)=O)nn(CC(=O)N3[C@H](C(=O)Nc4nc(Br)ccc4C)C[C@@]4(COCC=C)C[C@@H]34)c2c1, 20-membered ring, 1.6 mM, 16.0 h) worked out at 2.1%.
